The values below are quoted from earlier work in US9198935B2, “Hydrogen peroxide-based skin disinfectant” (VIROX TECHNOLOGIES INC., priority 2004, dated 2015).

Structures are written as SMILES. Read-outs that look alike come from different tables or passages of the source.

The series deals with Staphylococcus aureus.

`OO` [hydrogen peroxide]: the “time to achieve a greater than 6 log reduction in Staphylococcus aureus” value (25% w/w aqueous solution of hydrogen peroxide) is 20 seconds and the “time to achieve a greater than 6 log reduction in Staphylococcus aureus” value (solution containing 3% w/w hydrogen peroxide) is reported as 20 minutes.
